Where two headings read alike, the source gives them in different places.
Experiments:
[1] = biological target: T1, PKC epsilon (Homo sapiens, UniProt Q02156); experiment: Biochemical assay for PKC epsilon (fluorescence polarization, Protein Kinase C Assay Kit, Red); settings: read-out: IC50 μM PKCε
T1 construct: purchased Invitrogen P2282
T1 sequence (Q02156 1-737): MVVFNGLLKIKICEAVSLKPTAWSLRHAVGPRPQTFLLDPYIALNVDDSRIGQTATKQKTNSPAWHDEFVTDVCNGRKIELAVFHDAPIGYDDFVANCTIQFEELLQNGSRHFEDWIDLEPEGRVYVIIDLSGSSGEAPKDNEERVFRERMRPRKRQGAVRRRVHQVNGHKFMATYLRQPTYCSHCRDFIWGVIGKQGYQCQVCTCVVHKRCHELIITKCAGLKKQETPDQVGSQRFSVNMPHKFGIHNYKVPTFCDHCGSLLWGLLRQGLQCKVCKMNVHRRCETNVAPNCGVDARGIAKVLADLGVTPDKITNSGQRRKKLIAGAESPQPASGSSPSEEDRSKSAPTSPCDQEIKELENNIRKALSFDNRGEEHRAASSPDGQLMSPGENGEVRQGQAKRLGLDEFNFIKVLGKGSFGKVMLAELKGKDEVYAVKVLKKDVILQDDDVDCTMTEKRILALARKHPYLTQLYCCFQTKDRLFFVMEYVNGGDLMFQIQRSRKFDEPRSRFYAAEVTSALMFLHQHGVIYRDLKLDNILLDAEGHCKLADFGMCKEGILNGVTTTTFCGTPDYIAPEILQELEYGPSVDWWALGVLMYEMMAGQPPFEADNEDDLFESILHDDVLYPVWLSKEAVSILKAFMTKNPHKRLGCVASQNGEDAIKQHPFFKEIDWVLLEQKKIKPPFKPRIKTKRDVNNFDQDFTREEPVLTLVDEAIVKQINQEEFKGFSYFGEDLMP
In short: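 PKC epsilon at 10 ng/ml final was preincubated 30 min at room temperature with compound in HEPES pH 7.4 with DTT and Triton X-100. ATP/protein substrate was then added in buffer with MgCl2 and CaCl2 for 80 min. The reaction was stopped with EDTA, phosphorylation was detected by fluorescence polarization with rhodamine tracer and anti-phosphoserine antibody, and IC50 values came from curve fits.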

[2] = biological target: T2, human ROCKα/ROCKII mix (Homo sapiens, UniProt O75116); experiment: Biochemical assay for ROCK (fluorescence polarization, ROCK IMAP Kit)
T2 construct: purchased Upstate Biotechnology 14-451
Method: The compounds were tested for inhibition of human ROCKα/ROCKII mix.
The inhibition assays were performed with a fluorescence polarization (FP) assay using the commercially available ROCK IMAP Kit from Molecular Devices (Product ID. No. R8093), essentially in accordance with the protocol supplied by the manufacturer. […] The enzyme mix ROCKα/ROCKII was obtained from Upstate Biotechnology (Product ID No 14-451).
In summary, the compound was screened in the wells of a 384 well plate for enzymatic inhibition with concentrations varying from 100 μM to 0.3 nM using a stepwise 3 (or 2)-fold dilution.
To perform the assay, 1 μl of a solution of the compound to be tested in DMSO (at each concentration) was added to 2 μl of a solution of the enzyme in 10 mM Tris-HCl , 10 mM MgCl2, 0.1% BSA, 0.05% NaN3, pH 7.2. The final concentration of the enzyme was 2.6 nM.
After incubating for 30 minutes at room temperature, 2 μl of a mixture of ATP and the protein substrate in 10 mM Tris-HCl, 10 mM MgCl2, 0.1% BSA, 0.05% NaN3, pH 7.2 was added. The final concentration of the ATP was 10 μM and final concentration of protein substrate was 0.2 μM.
After incubating for 60 minutes at room temperature, 12 μl of the IMAP Binding Solution (mix of the IMAP Binding Buffer A (1×) and the IMAP Binding Reagent (from the ROCK IMAP kit)) was added.
The mixture thus obtained (total volume: 17 μl) was incubated for 60 minutes at room temperature, upon which the fluorescence polarization was measured using an automated plate reader (Perkin Elmer, Model Envision 2100-0010 HTS) with FP filters: excitation filter FITC FP 480 and emission filters FITC FP P-pol 535 and FITC FP S-pol 535 (Perkin-Elmer). The results were fitted to a curve using the XL-Fit algorithm and IC50 values were calculated for each fitted curve, again using the XL-Fit algorithm.

[3] = compounds of Formula XIV, Table 3
[4] = Table 2, compounds of Formula XIII

T2 sequence (O75116 11-552 limits assumed): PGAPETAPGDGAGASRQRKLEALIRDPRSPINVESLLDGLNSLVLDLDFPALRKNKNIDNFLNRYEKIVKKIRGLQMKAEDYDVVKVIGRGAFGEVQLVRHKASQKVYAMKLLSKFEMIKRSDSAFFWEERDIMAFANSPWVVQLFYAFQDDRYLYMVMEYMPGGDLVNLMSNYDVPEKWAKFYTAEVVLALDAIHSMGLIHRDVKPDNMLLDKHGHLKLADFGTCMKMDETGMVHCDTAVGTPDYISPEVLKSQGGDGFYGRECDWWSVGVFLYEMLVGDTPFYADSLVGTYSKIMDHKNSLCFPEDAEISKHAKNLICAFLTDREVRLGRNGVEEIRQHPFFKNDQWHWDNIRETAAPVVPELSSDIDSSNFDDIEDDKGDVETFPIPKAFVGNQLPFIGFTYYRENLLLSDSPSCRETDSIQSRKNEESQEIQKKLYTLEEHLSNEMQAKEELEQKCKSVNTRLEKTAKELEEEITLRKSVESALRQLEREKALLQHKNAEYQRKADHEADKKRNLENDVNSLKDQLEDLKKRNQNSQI

## CC(Cc1c[nH]c2ccccc12)NC(=O)CC(N)c1ccc(C(=O)Nc2ccncc2)cc1 (stereo not shown) [Compound 315, 4-{1-Amino-2-[2-(1H-indol-3-yl)-1-methyl-ethylcarbamoyl]-ethyl}-N-pyridin-4-yl-benzamide]
[1]; [3]
  IC50: 0.5 to 5 µM
[2]; [3]
  IC50: 0.05 to 0.5 µM

## NC(c1ccc(C(=O)Nc2ccncc2)cc1)C1CCCN1C(=O)Cc1csc(-c2ccccc2)n1 (stereo not shown) [Compound 546, 4-(Amino-{1-[2-(2-phenyl-thiazol-4-yl)-acetyl]-pyrrolidin-2-yl}-methyl)-N-pyridin-4-yl-benzamide]
[1]
  IC50: 0.5 to 5 µM
[2]
  IC50: 0.5 to 5 µM

## NC(CC(=O)NCc1ccccc1OC(F)(F)F)c1ccc(C(=O)Nc2ccncc2)cc1 (stereo not shown) [Compound 269, 4-[1-Amino-2-(2-trifluoromethoxy-benzylcarbamoyl)-ethyl]-N-pyridin-4-yl-benzamide]
[1]; [3]
  IC50: 0.5 to 5 µM
[2]; [3]
  IC50: 0.05 to 0.5 µM

## COc1ccc(CC(=O)N2CCCC2C(N)c2ccc(C(=O)Nc3ccncc3)cc2)cc1 (stereo not shown) [Compound 528, 4-(Amino-{1-[2-(4-methoxy-phenyl)-acetyl]-pyrrolidin-2-yl}-methyl)-N-pyridin-4-yl-benzamide]
[1]
  IC50: 0.5 to 5 µM
[2]
  IC50: 0.05 to 0.5 µM

## NC(CC(=O)NCc1cccc(C(F)(F)F)c1)c1ccc(C(=O)Nc2ccncc2)cc1 (stereo not shown) [Compound 264, 4-[1-Amino-2-(3-trifluoromethyl-benzylcarbamoyl)-ethyl]-N-pyridin-4-yl-benzamide]
[1]; [3]
  IC50: 0.5 to 5 µM
[2]; [3]
  IC50: 0.05 to 0.5 µM

## NC(c1ccc(C(=O)Nc2ccncc2)cc1)C1CCCN1C(=O)Cc1ccc(Cl)cc1 (stereo not shown) [Compound 561, 4-(Amino-{1-[2-(4-chloro-phenyl)-acetyl]-pyrrolidin-2-yl}-methyl)-N-pyridin-4-yl-benzamide]
[1]
  IC50: 0.5 to 5 µM
[2]
  IC50: 0.5 to 5 µM

## N-{2-Amino-2-[4-(pyridin-4- ylcarbamoyl)-phenyl]-ethyl}- nicotinamide [Compound 107]
[1]; [4]
  IC50: 0.5 to 5 µM
[2]; [4]
  IC50: 0.5 to 5 µM

## NC(CNC(=O)CC(c1ccccc1)c1ccccc1)c1ccc(C(=O)Nc2ccncc2)cc1 (stereo not shown) [Compound 160, 4-[1-Amino-2-(3,3-diphenyl-propionylamino)-ethyl]-N-pyridin-4-yl-benzamide]
[1]; [4]
  IC50: 5 to 50 µM
[2]; [4]
  IC50: 0.05 to 0.5 µM

## NC(c1ccc(C(=O)Nc2ccncc2)cc1)C1CCCN1C(=O)C1Cc2ccccc21 (stereo not shown) [Compound 552, 4-{Amino-[1-(bicyclo[4.2.0]octa-1,3,5-triene-7-carbonyl)-pyrrolidin-2-yl]-methyl}-N-pyridin-4-yl-benzamide]
[1]
  IC50: 5 to 50 µM
[2]
  IC50: 0.05 to 0.5 µM

## 4-(1-Amino-2-{[2-(4- hydroxy-3-nitro-phenyl)- acetyl]-methyl- amino]-ethyl)- N-pyridin-4-yl-benzamide [Compound 439]
[1]
  IC50: 5 to 50 µM
[2]
  IC50: 0.05 to 0.5 µM

## NC(CNC(=O)CC1CCCC1)c1ccc(C(=O)Nc2ccncc2)cc1 (stereo not shown) [Compound 47, 4-[1-Amino-2-(2-cyclopentyl-acetylamino)-ethyl]-N-pyridin-4-yl-benzamide]
[1]; [4]
  IC50: 0.5 to 5 µM
[2]; [4]
  IC50: 0.5 to 5 µM

## NC(CNC(=O)C1CCOC1)c1ccc(C(=O)Nc2ccncc2)cc1 (stereo not shown) [Compound 65, Tetrahydro-furan-3-carboxylic acid {2-amino-2-[4-(pyridin-4-ylcarbamoyl)-phenyl]-ethyl}-amide]
[1]; [4]
  IC50: 0.5 to 5 µM
[2]; [4]
  IC50: 0.5 to 5 µM

## Indan-1-carboxylic acid {2- amino-2-[4-(pyridin-4- ylcarbamoyl)-phenyl]-ethyl}- methyl-amide [Compound 507]
[1]
  IC50: 5 to 50 µM
[2]
  IC50: 0.5 to 5 µM

## NC(CC(=O)NCc1cc(C(F)(F)F)cc(C(F)(F)F)c1)c1ccc(C(=O)Nc2ccncc2)cc1 (stereo not shown) [Compound 268, 4-[1-Amino-2-(3,5-bis-trifluoromethyl-benzylcarbamoyl)-ethyl]-N-pyridin-4-yl-benzamide]
[1]; [3]
  IC50: 0.5 to 5 µM
[2]; [3]
  IC50: 0.05 to 0.5 µM

## CCC(Oc1ccccc1)C(=O)NCC(N)c1ccc(C(=O)Nc2ccncc2)cc1 (stereo not shown) [Compound 158, 4-[1-Amino-2-(2-phenoxy-butyrylamino)-ethyl]-N-pyridin-4-yl-benzamide]
[1]; [4]
  IC50: 0.5 to 5 µM
[2]; [4]
  IC50: 0.05 to 0.5 µM

## COc1ccc(CC(=O)NCC(N)c2ccc(C(=O)Nc3ccncc3)cc2)cc1 (stereo not shown) [Compound 140, 4-{1-amino-2-[2-(4-methoxy-phenyl)-acetylamino]-ethyl}-N-pyridin-4-yl-benzamide]
[1]; [4]
  IC50: 5 to 50 µM
[2]; [4]
  IC50: 0.05 to 0.5 µM

## NC(CNC(=S)Nc1ccc(OC(F)(F)F)cc1)c1ccc(C(=O)Nc2ccncc2)cc1 (stereo not shown) [Compound 15, 4-{1-amino-2-[3-(4-trifluoromethoxy-phenyl)-thioureido]-ethyl}-N-pyridin-4-yl-benzamide]
[1]
  IC50: 5 to 50 µM
[2]
  IC50: 0.5 to 5 µM

## NC(c1ccc(C(=O)Nc2ccncc2)cc1)C1CCCN1C(=O)C1CCc2ccccc21 (stereo not shown) [Compound 608, 4-{Amino-[1-(indane-1-carbonyl)-pyrrolidin-2-yl]-methyl}-N-pyridin-4-yl-benzamide]
[1]
  IC50: 0.5 to 5 µM
[2]
  IC50: 0.5 to 5 µM

## 4-{1-Amino-2-[methyl-(2- methyl-2-thiophen-2-yl- propionyl)- amino]-ethyl}- N-pyridin-4-yl-benzamide [Compound 447]
[1]
  IC50: 0.5 to 5 µM
[2]
  IC50: 0.5 to 5 µM

## 4-[1-Amino-2-(benzyl- phenethyl-carbamoyl)-ethyl]- N-pyridin-4-yl-benzamide [Compound 226]
[1]; [3]
  IC50: 0.5 to 5 µM
[2]; [3]
  IC50: 0.05 to 0.5 µM

## NC(c1ccc(C(=O)Nc2ccncc2)cc1)C1CCCN1C(=O)C1CCOc2ccccc21 (stereo not shown) [Compound 615, 4-{Amino-[1-(chroman-4-carbonyl)-pyrrolidin-2-yl]-methyl}-N-pyridin-4-yl-benzamide]
[1]
  IC50: 5 to 50 µM
[2]
  IC50: 0.5 to 5 µM

## CC(NC(=O)CC(N)c1ccc(C(=O)Nc2ccncc2)cc1)c1ccccc1 (stereo not shown) [Compound 215, 4-[1-Amino-2-(1-phenyl-ethylcarbamoyl)-ethyl]-N-pyridin-4-yl-benzamide]
[1]; [3]
  IC50: 0.5 to 5 µM
[2]; [3]
  IC50: 0.05 to 0.5 µM

## Cc1ccc(C)c(CNC(=O)CC(N)c2ccc(C(=O)Nc3ccncc3)cc2)c1 (stereo not shown) [Compound 234, 4-[1-Amino-2-(2,5-dimethyl-benzylcarbamoyl)-ethyl]-N-pyridin-4-yl-benzamide]
[1]; [3]
  IC50: 0.5 to 5 µM
[2]; [3]
  IC50: 0.05 to 0.5 µM

## 4-{1-Amino-2-[(pyridin-4- ylmethyl)-carbamoyl]-ethyl}- N-pyridin-4-yl-benzamide [Compound 276]
[1]; [3]
  IC50: 0.5 to 5 µM
[2]; [3]
  IC50: 0.05 to 0.5 µM

## 4-{1-Amino-2-[(2-biphenyl-4- yl-acetyl)-methyl- amino]-ethyl}- N-pyridin-4-yl-benzamide [Compound 436]
[1]
  IC50: 5 to 50 µM
[2]
  IC50: 0.5 to 5 µM

## 4-(1-Amino-2- phenethylcarbamoyl-ethyl)- N-pyridin-4-yl-benzamide [Compound 281]
[1]; [3]
  IC50: 0.5 to 5 µM
[2]; [3]
  IC50: 0.05 to 0.5 µM

## NC(CNC(=O)c1ccc2ccccc2c1)c1ccc(C(=O)Nc2ccncc2)cc1 (stereo not shown) [Compound 70]
[1]; [4]
  IC50: 5 to 50 µM
[2]; [4]
  IC50: 0.05 to 0.5 µM

## 4-(1-Amino-2-{[2-(4-chloro- phenyl)-3-methyl-butyryl]- methyl- amino}-ethyl)- N-pyridin-4-yl-benzamide [Compound 461]
[1]
  IC50: 5 to 50 µM
[2]
  IC50: 0.5 to 5 µM

## NC(CNC(=O)C1CCOc2ccc(F)cc21)c1ccc(C(=O)Nc2ccncc2)cc1 (stereo not shown) [Compound 393, 6-Fluoro-chroman-4-carboxylic acid {2-amino-2-[4-(pyridin-4-ylcarbamoyl)-phenyl]-ethyl}-amide]
[1]; [4]
  IC50: 0.05 to 0.5 µM
[2]; [4]
  IC50: 0.05 to 0.5 µM

— patent publication US20100168102A9, “Amide Derivatives as Kinase Inhibitors” (Devgen NV, priority 2005, published 2010)
